Laboratory results reported in ChEMBL document CHEMBL1201862, “PubChem BioAssay data set” (2004).
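Grown in 96-well plates, cells were treated for 48 hours with each compound at five concentrations. Insufficient inhibition: endpoint recorded as highest concentration tested. At the GI50, growth is halved.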 Activity calls are given as the source filed them. Cut-off read from the data, not from the text of the source: active = GI50 up to about 1.1 µM and inactive = higher.

Experiments:
Assay in all cases: growth of human tumour cells (NCI), 48 h
OVCAR-3 = tested on: OVCAR-3
BT-549 = tested on: BT-549
HCT-15 = tested on: HCT-15
UO-31 = tested on: UO-31
SK-OV-3 = tested on: SK-OV-3
M14 = tested on: M14
MDA-MB-231 = tested on: MDA-MB-231
PC-3 = tested on: PC-3
OVCAR-4 = tested on: OVCAR-4
SF-295 = tested on: SF-295
MOLT-4 = tested on: MOLT-4
A498 = tested on: A498
Malme-3M = tested on: Malme-3M
786-0 = tested on: 786-0
NCI-H522 = tested on: NCI-H522
HOP-62 = tested on: HOP-62
KM12 = tested on: KM12
NCI/ADR-RES = tested on: NCI/ADR-RES
CAKI-1 = tested on: CAKI-1
SN12C = tested on: SN12C
RXF 393 = tested on: RXF 393
LOX IMVI = tested on: LOX IMVI
SNB-19 = tested on: SNB-19
SK-MEL-5 = tested on: SK-MEL-5
OVCAR-8 = tested on: OVCAR-8
SF-268 = tested on: SF-268
SK-MEL-28 = tested on: SK-MEL-28
Hs-578T = tested on: Hs-578T
NCI-H23 = tested on: NCI-H23
CCRF-CEM = tested on: CCRF-CEM
TK-10 = tested on: TK-10
HOP-92 = tested on: HOP-92
RPMI-8226 = tested on: RPMI-8226
SNB-75 = tested on: SNB-75
SK-MEL-2 = tested on: SK-MEL-2
OVCAR-5 = tested on: OVCAR-5
NCI-H226 = tested on: NCI-H226
MCF7 = tested on: MCF7
UACC-62 = tested on: UACC-62
IGROV-1 = tested on: IGROV-1
DU-145 = tested on: DU-145
ACHN = tested on: ACHN
NCI-H460 = tested on: NCI-H460
HT-29 = tested on: HT-29
A549 = tested on: A549
MDA-MB-435 = tested on: MDA-MB-435
EKVX = tested on: EKVX
HCT-116 = tested on: HCT-116
COLO 205 = tested on: COLO 205
U-251 = tested on: U-251
UACC-257 = tested on: UACC-257
T47D = tested on: T47D
SF-539 = tested on: SF-539
SW-620 = tested on: SW-620
K562 = tested on: K562
MDA-N = tested on: MDA-N
HCC 2998 = tested on: HCC 2998
SR = tested on: SR

`O=C(O)c1cccc(/C=C/c2ccccc2)c1` was tested, and the GI50 (OVCAR-3) was > 100 µM (inactive), the GI50 (BT-549) was > 100 µM (inactive) and the GI50 (HCT-15) was > 100 µM. For the same compound, the GI50 (UO-31) was > 100 µM (inactive), the GI50 (SK-OV-3) was > 100 µM (inactive) and the GI50 (M14) was > 100 µM (inactive). For the same compound, the GI50 (MDA-MB-231) was > 100 µM (inactive), the GI50 (PC-3) was > 100 µM (inactive) and the GI50 (OVCAR-4) was > 100 µM (inactive). The GI50 (SF-295) was > 100 µM (inactive), the GI50 (MOLT-4) was > 100 µM (inactive) and the GI50 (A498) was > 100 µM (inactive). The GI50 (Malme-3M) was 72.6 µM (inactive), the GI50 (786-0) was > 100 µM (inactive) and the GI50 (NCI-H522) was > 100 µM (inactive). For the same compound, the GI50 (HOP-62) was > 100 µM (inactive), the GI50 (KM12) was > 100 µM (inactive) and the GI50 (NCI/ADR-RES) was > 100 µM (inactive). For the same compound, the GI50 (CAKI-1) was > 100 µM (inactive), the GI50 (SN12C) was > 100 µM (inactive) and the GI50 (RXF 393) was > 100 µM (inactive). The GI50 (LOX IMVI) was > 100 µM (inactive), the GI50 (SNB-19) was > 100 µM (inactive) and the GI50 (SK-MEL-5) was > 100 µM (inactive). For the same compound, the GI50 (OVCAR-8) was > 100 µM (inactive), the GI50 (SF-268) was > 100 µM (inactive) and the GI50 (SK-MEL-28) was > 100 µM (inactive). For the same compound, the GI50 (Hs-578T) was > 100 µM (inactive), the GI50 (NCI-H23) was > 100 µM (inactive) and the GI50 (CCRF-CEM) was > 100 µM (inactive). For the same compound, the GI50 (TK-10) was > 100 µM (inactive), the GI50 (HOP-92) was > 100 µM (inactive) and the GI50 (RPMI-8226) was > 100 µM (inactive). For the same compound, the GI50 (SNB-75) was > 100 µM (inactive), the GI50 (SK-MEL-2) was > 100 µM (inactive) and the GI50 (OVCAR-5) was > 100 µM (inactive). The GI50 (NCI-H226) was > 100 µM (inactive), the GI50 (MCF7) was > 100 µM (inactive) and the GI50 (UACC-62) was > 100 µM (inactive). The GI50 (IGROV-1) was > 100 µM (inactive), the GI50 (DU-145) was 3.08 µM (inactive) and the GI50 (ACHN) was > 100 µM (inactive). For the same compound, the GI50 (NCI-H460) was > 100 µM (inactive), the GI50 (HT-29) was > 100 µM (inactive) and the GI50 (A549) was > 100 µM (inactive). For the same compound, the GI50 (MDA-MB-435) was > 100 µM (inactive), the GI50 (EKVX) was > 100 µM (inactive) and the GI50 (HCT-116) was > 100 µM (inactive). For the same compound, the GI50 (COLO 205) was > 100 µM (inactive), the GI50 (U-251) was > 100 µM (inactive) and the GI50 (UACC-257) was > 100 µM (inactive). For the same compound, the GI50 (T47D) was > 100 µM (inactive), the GI50 (SF-539) was > 100 µM (inactive) and the GI50 (SW-620) was > 100 µM (inactive).

In the case of `COC(=O)c1ccc(COC(=O)N2C=CCC2C(=O)O)cc1` (stereo not given), the GI50 (OVCAR-3) is reported as > 100 µM (inactive), the GI50 (BT-549) is reported as > 100 µM (inactive) and the GI50 (HCT-15) is reported as > 100 µM. For the same compound, the GI50 (UO-31) was > 100 µM (inactive), the GI50 (SK-OV-3) was > 100 µM (inactive) and the GI50 (M14) was > 100 µM (inactive). The GI50 (MDA-MB-231) was > 100 µM (inactive), the GI50 (PC-3) was > 100 µM (inactive) and the GI50 (SF-295) was > 100 µM (inactive). For the same compound, the GI50 (MOLT-4) was > 100 µM (inactive), the GI50 (Malme-3M) was > 100 µM (inactive) and the GI50 (786-0) was > 100 µM (inactive). The GI50 (NCI-H522) was > 100 µM (inactive), the GI50 (HOP-62) was > 100 µM (inactive) and the GI50 (KM12) was > 100 µM (inactive). For the same compound, the GI50 (NCI/ADR-RES) was > 100 µM (inactive), the GI50 (CAKI-1) was > 100 µM (inactive) and the GI50 (SN12C) was > 100 µM (inactive). The GI50 (RXF 393) was > 100 µM (inactive), the GI50 (K562) was > 100 µM (inactive) and the GI50 (SNB-19) was > 100 µM (inactive). For the same compound, the GI50 (MDA-N) was > 100 µM (inactive), the GI50 (SK-MEL-5) was > 100 µM (inactive) and the GI50 (OVCAR-8) was > 100 µM (inactive). The GI50 (SF-268) was > 100 µM (inactive), the GI50 (SK-MEL-28) was > 100 µM (inactive) and the GI50 (Hs-578T) was > 100 µM (inactive). The GI50 (NCI-H23) was > 100 µM (inactive), the GI50 (TK-10) was > 100 µM (inactive) and the GI50 (HOP-92) was 63 µM (inactive). The GI50 (RPMI-8226) was > 100 µM (inactive), the GI50 (SNB-75) was > 100 µM (inactive) and the GI50 (SK-MEL-2) was > 100 µM (inactive). The GI50 (OVCAR-5) was > 100 µM (inactive), the GI50 (NCI-H226) was > 100 µM (inactive) and the GI50 (MCF7) was > 100 µM (inactive). The GI50 (UACC-62) was > 100 µM (inactive), the GI50 (IGROV-1) was > 100 µM (inactive) and the GI50 (HCC 2998) was > 100 µM (inactive). The GI50 (DU-145) was > 100 µM (inactive), the GI50 (ACHN) was > 100 µM (inactive) and the GI50 (NCI-H460) was > 100 µM (inactive). The GI50 (HT-29) was > 100 µM (inactive), the GI50 (A549) was > 100 µM (inactive) and the GI50 (MDA-MB-435) was > 100 µM (inactive). The GI50 (COLO 205) was > 100 µM (inactive), the GI50 (U-251) was > 100 µM (inactive) and the GI50 (UACC-257) was > 100 µM (inactive). For the same compound, the GI50 (SR) was > 100 µM (inactive), the GI50 (SF-539) was > 100 µM (inactive) and the GI50 (SW-620) was > 100 µM (inactive).
